Molecular target: T1, human CCR6 (Homo sapiens, UniProt P51684)
T1 construct: expressed in transfected cells; host or cells: Ba/F3 cells (murine pro-B line), hCCR6-transfected, CMV promoter, sodium butyrate induction
T1 sequence (P51684 1-374): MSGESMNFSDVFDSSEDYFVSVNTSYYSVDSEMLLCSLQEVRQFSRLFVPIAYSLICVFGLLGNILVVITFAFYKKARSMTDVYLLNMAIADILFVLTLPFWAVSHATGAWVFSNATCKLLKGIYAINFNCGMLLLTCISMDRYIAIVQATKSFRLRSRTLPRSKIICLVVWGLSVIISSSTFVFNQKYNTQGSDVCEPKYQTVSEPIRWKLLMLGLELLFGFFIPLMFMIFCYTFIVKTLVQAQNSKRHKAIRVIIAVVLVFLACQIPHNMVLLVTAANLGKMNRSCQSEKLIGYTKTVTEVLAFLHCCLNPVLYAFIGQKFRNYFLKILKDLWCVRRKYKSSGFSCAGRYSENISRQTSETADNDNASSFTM
Test: Migration (chemotaxis) assay, hCCR6-transfected Ba/F3 cells toward CCL20
Assay type: cell-based
Conditions: hCCR6-transfected Ba/F3 cells in human serum; recombinant human CCL20 10 nM; 37° C. 45 minutes; read-out: Potency (IC50 value in the migration assay)
In short: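 Ba/F3 cells stably transfected with human CCR6 (CMV promoter), pre-induced 24 hr with sodium butyrate, suspended at 4 million/ml in human serum with test compound serially diluted from 10 μM final. Migration through 5-μm polycarbonate membrane toward 10 nM CCL20 (EC50) for 45 min at 37 °C; migrated cells quantified by CyQUANT fluorescence.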

| Compound | IC50 |
| --- | --- |
| NC(=O)C1CC12CCN(c1ccc(S(=O)(=O)N3CCC(Nc4ccc(C(F)(F)F)cn4)CC3)cc1)CC2 (stereo not shown) [Example 1.137] | 100 to 10000 nM |
| NC(=O)CC1CCCN(c2ccc(S(=O)(=O)N3CCC(Nc4ccc(C(F)(F)F)cn4)CC3)cc2)C1 (stereo not shown) [Example 1.138] | 100 to 10000 nM |
| O=C1CNC(=O)C2(CCN(c3ccc(S(=O)(=O)N4CCC(Nc5ccc(C(F)(F)F)cn5)CC4)cc3)CC2)N1 [Example 1.139] | 100 to 10000 nM |
| CC(=O)NCC1CCN(c2ccc(S(=O)(=O)N3CCC(Nc4ccc(C(F)(F)F)cn4)CC3)cc2)CC1 [Example 1.140] | 5 to 100 nM |
| CS(=O)(=O)NCC1CCN(c2ccc(S(=O)(=O)N3CCC(Nc4ccc(C(F)(F)F)cn4)CC3)cc2)CC1 [Example 1.141] | 5 to 100 nM |
| NC(=O)N1CCC12CN(c1ccc(S(=O)(=O)N3CCC(Nc4ccc(C(F)(F)F)cn4)CC3)cc1)C2 [Example 1.142] | 5 to 100 nM |
| CC(C)(C)OC(=O)NCC1CN(c2ccc(S(=O)(=O)N3CCC(Nc4ccc(C(F)(F)F)cn4)CC3)cc2)C1 [Example 1.143] | 5 to 100 nM |
| NC(=O)CC1CN(c2ccc(S(=O)(=O)N3CCC(Nc4ccc(C(F)(F)F)cn4)CC3)cc2)C1 [Example 1.144] | 100 to 10000 nM |
| NC(=O)N1CC(C2CN(c3ccc(S(=O)(=O)N4CCC(Nc5ccc(C(F)(F)F)cn5)CC4)cc3)C2)C1 [Example 1.145] | 5 to 100 nM |
| NC(=O)NCC1CCN(c2ccc(S(=O)(=O)N3CCC(Nc4ccc(C(F)(F)F)cn4)CC3)cc2)CC1 [Example 1.146] | < 5 nM |
| O=C1COC2(CCN(c3ccc(S(=O)(=O)N4CCC(Nc5ccc(C(F)(F)F)cn5)CC4)cc3)CC2)CN1 [Example 1.147] | 5 to 100 nM |
| O=C1NC2(CCN(c3ccc(S(=O)(=O)N4CCC(Nc5ccc(C(F)(F)F)cn5)CC4)cc3)CC2)CO1 [Example 1.148] | < 5 nM |
| O=C1CC2(CCN(c3ccc(S(=O)(=O)N4CCC(Nc5ccc(C(F)(F)F)cn5)CC4)cc3)CC2)C(=O)N1 [Example 1.149] | 5 to 100 nM |
| O=C1NCC2(CCN(c3ccc(S(=O)(=O)N4CCC(Nc5ccc(C(F)(F)F)cn5)CC4)cc3)CC2)N1 [Example 1.150] | 5 to 100 nM |
| O=C1NC(=O)C2(CCN(c3ccc(S(=O)(=O)N4CCC(Nc5ccc(C(F)(F)F)cn5)CC4)cc3)CC2)N1 [Example 1.151] | < 5 nM |
| O=C1CC2(CCN(c3ccc(S(=O)(=O)N4CCC(Nc5ccc(C(F)(F)F)cn5)CC4)cc3)CC2)CC(=O)N1 [Example 1.152] | < 5 nM |
| O=C1NCCC12CCN(c1ccc(S(=O)(=O)N3CCC(Nc4ccc(C(F)(F)F)cn4)CC3)cc1)CC2 [Example 1.153] | 5 to 100 nM |
| NC(=O)N1CC2(C1)CN(c1ccc(S(=O)(=O)N3CCC(Nc4ccc(C(F)(F)F)cn4)CC3)cc1)C2 [Example 1.154] | < 5 nM |
| NC(=O)CC1CCN(c2ccc(S(=O)(=O)N3CCC(Nc4ccc(C(F)(F)F)cn4)CC3)cc2)CC1 [Example 1.155] | < 5 nM |
| O=S(=O)(c1ccc(N2CCC(O)CC2)cc1)N1CCC(Nc2ccc(C(F)(F)F)cn2)CC1 [Example 1.156] | 5 to 100 nM |
| CN1CCC2(CCN(c3ccc(S(=O)(=O)N4CCC(Nc5ccc(C(F)(F)F)cn5)CC4)cc3)CC2)C1=O [Example 1.157] | 5 to 100 nM |

| Compound | IC50 |
| --- | --- |
| O=S(=O)(c1ccc(N2CCC3(CC2)CC(O)C3)cc1)N1CCC(Nc2ccc(C(F)(F)F)cn2)CC1 [Example 1.158] | 5 to 100 nM |
| NC(=O)NC1CC2(C1)CN(c1ccc(S(=O)(=O)N3CCC(Nc4ccc(C(F)(F)F)cn4)CC3)cc1)C2 [Example 1.159] | 100 to 10000 nM |
| CS(=O)(=O)NC1CC2(C1)CN(c1ccc(S(=O)(=O)N3CCC(Nc4ccc(C(F)(F)F)cn4)CC3)cc1)C2 [Example 1.161] | 5 to 100 nM |
| NC(=O)[C@H]1[C@@H]2CN(c3ccc(S(=O)(=O)N4CCC(Nc5ccc(C(F)(F)F)cn5)CC4)cc3)C[C@@H]21 [Example 1.162] | 100 to 10000 nM |
| CC(=O)NC1CC2(C1)CN(c1ccc(S(=O)(=O)N3CCC(Nc4ccc(C(F)(F)F)cn4)CC3)cc1)C2 [Example 1.163] | 5 to 100 nM |
| CC(=O)NCC(=O)N1CCN(c2ccc(S(=O)(=O)N3CCC(Nc4ccc(C(F)(F)F)cn4)CC3)cc2)CC1 [Example 1.164] | 100 to 10000 nM |
| O=C1NCCCC12CCN(c1ccc(S(=O)(=O)N3CCC(Nc4ccc(C(F)(F)F)cn4)CC3)cc1)CC2 [Example 1.165] | < 5 nM |
| NC(=O)C1(O)CCN(c2ccc(S(=O)(=O)N3CCC(Nc4ccc(C(F)(F)F)cn4)CC3)cc2)CC1 [Example 1.166] | 5 to 100 nM |
| NC(=O)CC1CCN(c2ccc(S(=O)(=O)N3CCC(Nc4ccc(C(F)(F)F)cn4)CC3)cc2)CC1 [Example 1.167] | 5 to 100 nM |
| O=S(=O)(c1ccc(N2CCC(O)(CO)CC2)cc1)N1CCC(Nc2ccc(C(F)(F)F)cn2)CC1 [Example 1.168] | 5 to 100 nM |
| N#CC1CCN(c2ccc(S(=O)(=O)N3CCC(Nc4ccc(C(F)(F)F)cn4)CC3)cc2)CC1 [Example 1.171] | 100 to 10000 nM |
| O=C1NCCC12CCN(c1ccc(S(=O)(=O)N3CCC(Nc4ccc(C(F)(F)F)cn4)CC3)cc1)CC2 [Example 1.172] | < 5 nM |
| NC(=O)C(=O)N1CCN(c2ccc(S(=O)(=O)N3CCC(Nc4ccc(C(F)(F)F)cn4)CC3)cc2)CC1 [Example 1.173] | 5 to 100 nM |
| O=S(=O)(c1ccc(N2CCN(c3nnc[nH]3)CC2)cc1)N1CCC(Nc2ccc(C(F)(F)F)cn2)CC1 [Example 1.174] | 100 to 10000 nM |
| NC(=O)N1CCC2(CCN(c3ccc(S(=O)(=O)N4CCC(Nc5ccc(C(F)(F)F)cn5)CC4)cc3)C2)C1 (stereo not shown) [Example 1.175] | 5 to 100 nM |
| NC(=O)N1C[C@@H]2CN(c3ccc(S(=O)(=O)N4CCC(Nc5ccc(C(F)(F)F)cn5)CC4)cc3)C[C@@H]2C1 [Example 1.176] | 5 to 100 nM |
| O=C1NC(=O)N2CCN(c3ccc(S(=O)(=O)N4CCC(Nc5ccc(C(F)(F)F)cn5)CC4)cc3)CC12 (stereo not shown) [Example 1.177] | 5 to 100 nM |
| CS(=O)(=O)N1CCCC(c2ccc(S(=O)(=O)N3CCC(Nc4ccc(C(F)(F)F)cn4)CC3)cc2)C1 (stereo not shown) [Example 1.179] | 5 to 100 nM |
| O=S(=O)(c1ccc(N2[C@@H]3CC[C@H]2C[C@@H](O)C3)cc1)N1CCC(Nc2ccc(C(F)(F)F)cn2)CC1 [Example 1.180] | 5 to 100 nM |
| O=S(=O)(c1ccc(N2CC[C@H](O)[C@@H](CO)C2)cc1)N1CCC(Nc2ccc(C(F)(F)F)cn2)CC1 [Example 1.181] | 5 to 100 nM |
| CC1(O)CCN(c2ccc(S(=O)(=O)N3CCC(Nc4ccc(C(F)(F)F)cn4)CC3)cc2)CC1 [Example 1.182] | 5 to 100 nM |

| Compound | IC50 |
| --- | --- |
| CC(=O)N1CCCC(c2ccc(S(=O)(=O)N3CCC(Nc4ccc(C(F)(F)F)cn4)CC3)cc2)C1 (stereo not shown) [Example 1.183] | 5 to 100 nM |
| CC(=O)N1CCC(c2ccc(S(=O)(=O)N3CCC(Nc4ccc(C(F)(F)F)cn4)CC3)cc2)CC1 [Example 1.184] | 5 to 100 nM |
| O=S(=O)(c1ccc(N2CCC[C@@H](O)C2)cc1)N1CCC(Nc2ccc(C(F)(F)F)cn2)CC1 [Example 1.185] | 5 to 100 nM |
| O=S(=O)(c1ccc(N2CC[C@@H](O)C2)cc1)N1CCC(Nc2ccc(C(F)(F)F)cn2)CC1 [Example 1.186] | 100 to 10000 nM |
| O=S(=O)(c1ccc(N2CC3(CC(O)C3)C2)cc1)N1CCC(Nc2ccc(C(F)(F)F)cn2)CC1 [Example 1.187] | 5 to 100 nM |
| O=S(=O)(c1ccc(N2CCC(CO)CC2)cc1)N1CCC(Nc2ccc(C(F)(F)F)cn2)CC1 [Example 1.188] | 5 to 100 nM |
| NS(=O)(=O)C1CCN(c2ccc(S(=O)(=O)N3CCC(Nc4ccc(C(F)(F)F)cn4)CC3)cc2)CC1 [Example 1.189] | 100 to 10000 nM |
| NC(=O)N[C@H]1CCN(c2ccc(S(=O)(=O)N3CCC(Nc4ccc(C(F)(F)F)cn4)CC3)cc2)C1 [Example 1.190] | 100 to 10000 nM |
| NC(=O)N[C@H]1CCCN(c2ccc(S(=O)(=O)N3CCC(Nc4ccc(C(F)(F)F)cn4)CC3)cc2)C1 [Example 1.191] | 100 to 10000 nM |
| CC(=O)N[C@H]1CCN(c2ccc(S(=O)(=O)N3CCC(Nc4ccc(C(F)(F)F)cn4)CC3)cc2)C1 [Example 1.192] | 100 to 10000 nM |
| CC(=O)N[C@H]1CCCN(c2ccc(S(=O)(=O)N3CCC(Nc4ccc(C(F)(F)F)cn4)CC3)cc2)C1 [Example 1.193] | 100 to 10000 nM |
| O=C(CO)N1CCN(c2ccc(S(=O)(=O)N3CCC(Nc4ccc(C(F)(F)F)cn4)CC3)cc2)CC1 [Example 1.194] | 5 to 100 nM |
| NC(=O)C1CCN(c2ccc(S(=O)(=O)N3CCC(Nc4ccc(C(F)(F)F)cn4)CC3)cc2)C1 (stereo not shown) [Example 1.195] | 100 to 10000 nM |
| NC(=O)C1CN(c2ccc(S(=O)(=O)N3CCC(Nc4ccc(C(F)(F)F)cn4)CC3)cc2)C1 [Example 1.196] | 100 to 10000 nM |
| O=S(=O)(c1ccc(N2CC[C@H](O)C2)cc1)N1CCC(Nc2ccc(C(F)(F)F)cn2)CC1 [Example 1.197] | 100 to 10000 nM |
| O=S(=O)(c1ccc(N2CCC[C@H](O)C2)cc1)N1CCC(Nc2ccc(C(F)(F)F)cn2)CC1 [Example 1.198] | 5 to 100 nM |
| CS(=O)(=O)N1CCCN(c2ccc(S(=O)(=O)N3CCC(Nc4ccc(C(F)(F)F)cn4)CC3)cc2)CC1 [Example 1.199] | 100 to 10000 nM |
| CS(=O)(=O)N1CCN(c2ccc(S(=O)(=O)N3CCC(Nc4ccc(C(F)(F)F)cn4)CC3)cc2)CC1 [Example 1.200] | 5 to 100 nM |
| CC(=O)N1CCCN(c2ccc(S(=O)(=O)N3CCC(Nc4ccc(C(F)(F)F)cn4)CC3)cc2)CC1 [Example 1.201] | 100 to 10000 nM |

From US12012403B2, “Aryl sulfonyl compounds as CCR6 inhibitors” (CHEMOCENTRYX, INC., priority 2021, dated 2024)
